Results: publication PMC4784888, “Activity Based High-Throughput Screening for Novel O-GlcNAc Transferase Substrates Using a Dynamic Peptide Microarray” (PLoS ONE, 2016)
Counter-ions that a name gives are not always drawn.

System: purified m-OGT
Test: Km of UDP-GlcNAc in RBL-2 peptide O-GlcNAcylation on microarray
Type: biochemical, human
Details: fixed saturating RBL-2_410–422 peptide, purified m-OGT (0.2 μg/μL), UDP-GlcNAc 0–2 mM, Michaelis-Menten fit; read-out: Km of UDP-GlcNAc donor
Description: One step OGT purification was performed using His60 Ni Gravity Flow Columns (Clontech) according to the manufacturer’s instructions. Briefly, the nickel column was equilibrated with a buffer containing 50 mM sodium phosphate, 300 sodium chloride, 20 mM imidazole, and pH 7.4, followed by incubation with cell lysate containing His tag OGT for 1h at 4°C. After washing several times using buffer containing 50 mM sodium phosphate, 300 sodium chloride, 40 mM imidazole, and pH 7.4, the recombinant OGT was eluted using elution buffer containing 50 mM sodium phosphate, 300 mM sodium chloride, 300 mM imidazole, and pH 7.4. […]
Peptide O-GlcNAcylation was assessed using PamChip 4 microarray chips with a PamStation 12 instrument (Pamgene international, The Netherlands). […] O-GlcNAcylation of each peptide was detected by a fluorescent signal which was produced by an FITC conjugated antibody bound to the O-GlcNAc moiety on the peptide.
Image analysis was performed using BioNavigator 6 software (Pamgene international, The Netherlands). Briefly, each image was quantified by automated array grid finding and subsequent quantification of signal and local background for each individual spot. In this work, the signal median-minus-background value was used as the quantitative parameter for the O-GlcNAcylation of the peptide. […]

Structure (SMILES): CC(=O)N[C@H]1[C@@H](OP(=O)(O)OP(=O)(O)OC[C@H]2O[C@@H](n3ccc(=O)[nH]c3=O)[C@H](O)[C@@H]2O)O[C@H](CO)[C@@H](O)[C@@H]1O [UDP-GlcNAc, Uridine 5′-diphospho-N-acetylglucosamine sodium salt]
- Km: 24 µM
